Data published in the supplement of paper PMC10307832.

What was measured:
Assay in all cases: relative viability (nuclei count vs DMSO), 5 days (fraction); higher = more cells survive
201T = tested on: 201T
Procedure, shortened: (§1)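 Lung cancer cell lines in 1536-well plates were dosed by pin tool the day after seeding, either with one drug alone or with a fixed anchor-drug dose plus five library-drug doses (not always all listed) in √10 steps. After 5 days, cells were fixed and their nuclei stained in one step (final 0.05% Triton X-100, 1% formaldehyde, 1 ug/ml Hoechst), then counted on 4× images. Relative viability is the nuclei count in treated wells divided by that in vehicle wells. Values are medians of duplicate plates.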

ABC-1 = tested on: ABC-1
Procedure, shortened: as §1

BEN = tested on: BEN
Procedure, shortened: as §1

CAL-12T = tested on: CAL-12T
Procedure, shortened: as §1

COR-L 105 = tested on: COR-L 105
Procedure, shortened: as §1

EKVX = tested on: EKVX
Procedure, shortened: as §1

HARA = tested on: HARA
Procedure, shortened: as §1

HCC-366 = tested on: HCC-366
Procedure, shortened: as §1

LK-2 = tested on: LK-2
Procedure, shortened: as §1

LOU-NH91 = tested on: LOU-NH91
Procedure, shortened: as §1

NCI-H1437 = tested on: NCI-H1437
Procedure, shortened: as §1

NCI-H1666 = tested on: NCI-H1666
Procedure, shortened: as §1

NCI-H2009 = tested on: NCI-H2009
Procedure, shortened: as §1

NCI-H2170 = tested on: NCI-H2170
Procedure, shortened: as §1

NCI-H3122 = tested on: NCI-H3122
Procedure, shortened: as §1

NCI-H441 = tested on: NCI-H441
Procedure, shortened: as §1

NCI-H460 = tested on: NCI-H460
Procedure, shortened: as §1

NCI-H661 = tested on: NCI-H661
Procedure, shortened: as §1

NCI-H727 = tested on: NCI-H727
Procedure, shortened: as §1

PC-14 = tested on: PC-14
Procedure, shortened: as §1

## O=c1cc(N2CCOCC2)oc2c(-c3cccc4c3sc3ccccc34)cccc12 + Cc1nc(NC(=O)N2CCC[C@H]2C(N)=O)sc1-c1ccnc(C(C)(C)C(F)(F)F)c1 [Alpelisib] (partner 2 µM)
201T; first compound 0.01 µM
  relative viability: 1
201T; first compound 0.03162 µM
  relative viability: 0.994
201T; first compound 0.1 µM
  relative viability: 1.07
201T; first compound 0.3162 µM
  relative viability: 0.979
201T; first compound 1 µM
  relative viability: 0.879
ABC-1; first compound 0.01 µM
  relative viability: 1.11
ABC-1; first compound 0.03162 µM
  relative viability: 0.939
ABC-1; first compound 0.1 µM
  relative viability: 1.01
ABC-1; first compound 0.3162 µM
  relative viability: 0.883
ABC-1; first compound 1 µM
  relative viability: 0.857
BEN; first compound 0.01 µM
  relative viability: 0.946
BEN; first compound 0.03162 µM
  relative viability: 1.16
BEN; first compound 0.1 µM
  relative viability: 0.951
BEN; first compound 0.3162 µM
  relative viability: 0.951
BEN; first compound 1 µM
  relative viability: 1.05
CAL-12T; first compound 0.01 µM
  relative viability: 1.29
CAL-12T; first compound 0.03162 µM
  relative viability: 1.1
CAL-12T; first compound 0.1 µM
  relative viability: 1.13
CAL-12T; first compound 0.3162 µM
  relative viability: 1.27
CAL-12T; first compound 1 µM
  relative viability: 1.1
COR-L 105; first compound 0.01 µM
  relative viability: 1.1
COR-L 105; first compound 0.03162 µM
  relative viability: 0.933
COR-L 105; first compound 0.1 µM
  relative viability: 0.834
COR-L 105; first compound 0.3162 µM
  relative viability: 1.06
COR-L 105; first compound 1 µM
  relative viability: 0.838
EKVX; first compound 0.01 µM
  relative viability: 0.88
EKVX; first compound 0.03162 µM
  relative viability: 0.868
EKVX; first compound 0.1 µM
  relative viability: 0.883
EKVX; first compound 0.3162 µM
  relative viability: 0.858
EKVX; first compound 1 µM
  relative viability: 0.824
HARA; first compound 0.01 µM
  relative viability: 0.854
HARA; first compound 0.03162 µM
  relative viability: 0.789
HARA; first compound 0.1 µM
  relative viability: 0.88
HARA; first compound 0.3162 µM
  relative viability: 0.809
HARA; first compound 1 µM
  relative viability: 0.845
HCC-366; first compound 0.01 µM
  relative viability: 0.386
HCC-366; first compound 0.03162 µM
  relative viability: 0.469
HCC-366; first compound 0.1 µM
  relative viability: 0.44
HCC-366; first compound 0.3162 µM
  relative viability: 0.372
HCC-366; first compound 1 µM
  relative viability: 0.367
LK-2; first compound 0.01 µM
  relative viability: 1.1
LK-2; first compound 0.03162 µM
  relative viability: 1.01
LK-2; first compound 0.1 µM
  relative viability: 1.14
LK-2; first compound 0.3162 µM
  relative viability: 1.03
LK-2; first compound 1 µM
  relative viability: 1.25
LOU-NH91; first compound 0.01 µM
  relative viability: 0.656
LOU-NH91; first compound 0.03162 µM
  relative viability: 0.698
LOU-NH91; first compound 0.1 µM
  relative viability: 0.726
LOU-NH91; first compound 0.3162 µM
  relative viability: 0.759
LOU-NH91; first compound 1 µM
  relative viability: 0.69
NCI-H1437; first compound 0.01 µM
  relative viability: 0.931
NCI-H1437; first compound 0.03162 µM
  relative viability: 0.937
NCI-H1437; first compound 0.1 µM
  relative viability: 1.02
NCI-H1437; first compound 0.3162 µM
  relative viability: 0.993
NCI-H1437; first compound 1 µM
  relative viability: 0.95
NCI-H1666; first compound 0.01 µM
  relative viability: 0.936
NCI-H1666; first compound 0.03162 µM
  relative viability: 0.864
NCI-H1666; first compound 0.1 µM
  relative viability: 0.977
NCI-H1666; first compound 0.3162 µM
  relative viability: 0.963
NCI-H1666; first compound 1 µM
  relative viability: 0.832
NCI-H2009; first compound 0.01 µM
  relative viability: 1.12
NCI-H2009; first compound 0.03162 µM
  relative viability: 1.14
NCI-H2009; first compound 0.1 µM
  relative viability: 1.18
NCI-H2009; first compound 0.3162 µM
  relative viability: 1.15
NCI-H2009; first compound 1 µM
  relative viability: 1.13
NCI-H2170; first compound 0.01 µM
  relative viability: 0.83
NCI-H2170; first compound 0.03162 µM
  relative viability: 0.782
NCI-H2170; first compound 0.1 µM
  relative viability: 0.837
NCI-H2170; first compound 0.3162 µM
  relative viability: 0.817
NCI-H2170; first compound 1 µM
  relative viability: 0.735
NCI-H3122; first compound 0.01 µM
  relative viability: 0.868
NCI-H3122; first compound 0.03162 µM
  relative viability: 0.729
NCI-H3122; first compound 0.1 µM
  relative viability: 0.839
NCI-H3122; first compound 0.3162 µM
  relative viability: 0.756
NCI-H3122; first compound 1 µM
  relative viability: 0.713
NCI-H441; first compound 0.01 µM
  relative viability: 0.832
NCI-H441; first compound 0.03162 µM
  relative viability: 0.658
NCI-H441; first compound 0.1 µM
  relative viability: 0.792
NCI-H441; first compound 0.3162 µM
  relative viability: 0.842
NCI-H441; first compound 1 µM
  relative viability: 0.7
NCI-H460; first compound 0.01 µM
  relative viability: 0.509
NCI-H460; first compound 0.03162 µM
  relative viability: 0.502
NCI-H460; first compound 0.1 µM
  relative viability: 0.495
NCI-H460; first compound 0.3162 µM
  relative viability: 0.373
NCI-H460; first compound 1 µM
  relative viability: 0.538
NCI-H661; first compound 0.01 µM
  relative viability: 0.556
NCI-H661; first compound 0.03162 µM
  relative viability: 0.243
NCI-H661; first compound 0.1 µM
  relative viability: 0.591
NCI-H661; first compound 0.3162 µM
  relative viability: 0.606
NCI-H661; first compound 1 µM
  relative viability: 0.506
NCI-H727; first compound 0.01 µM
  relative viability: 0.481
NCI-H727; first compound 0.03162 µM
  relative viability: 0.591
NCI-H727; first compound 0.1 µM
  relative viability: 0.493
NCI-H727; first compound 0.3162 µM
  relative viability: 0.538
NCI-H727; first compound 1 µM
  relative viability: 0.541
PC-14; first compound 0.01 µM
  relative viability: 0.987
PC-14; first compound 0.03162 µM
  relative viability: 0.891
PC-14; first compound 0.1 µM
  relative viability: 0.931
PC-14; first compound 0.3162 µM
  relative viability: 1.04
PC-14; first compound 1 µM
  relative viability: 0.978
